Experimental data published in patent publication US11439648B2, “Use of topical BRAF inhibitor compositions for treatment of radiation dermatitis” (Lutris Pharma Ltd., priority 2019, dated 2022).

What follows are compounds tested on MIA PaCa2 K-ras cells (assay: Proliferation of MIA PaCa cells (ATPlite proliferation kit)). Settings: after 72 hours; concentration giving the highest proliferation (range 0.002 μM to 10 μM); starvation medium; average of 6 wells; presented as percent of over-proliferation vs DMSO control.
Type: cell-based
Experimental: In this example, effect of the compounds on proliferation of MIA PaCa2 K-ras cells was studied. It was expected that the compounds that induce ERK phosphorylation would also induce proliferation of Mia PaCa cells.
The cells were seeded in starvation medium at 5000 cells/well in a 96 wells plate for 24 hours at 37° C., 5% CO2. The tested compounds were added at different concentrations ranging from 0.002 μM to 10 μM. The controls were untreated cells and vehicle of 0.1% DMSO. The cells were incubated at 37° C., 5% CO2, for 72 hours and then the proliferation was tested using the ATPlite proliferation kit (Perkin-Elmer). Each result represents an average of 6 wells. The results are presented as the percent of over-proliferation compared to the DMSO control.
The concentration of the compounds that provided the highest proliferation was compared to DMSO. DMSO was calculated as 100%.
For Cc1ccc2c(Nc3ccc(Cl)cc3)nccc2c1Nc1ncccc1-c1ncnc2[nH]cnc12 [C-1], the “% proliferation compared to the DMSO control” value (from here on “% proliferation”) was 30%. In the case of Cc1ccc2c(Nc3cccc(OC(F)(F)F)c3)nccc2c1Nc1ncccc1-c1ncnc2[nH]cnc12 [LUT014], the “% proliferation” value was 116%. CCCS(=O)(=O)Nc1ccc(F)c(C(=O)c2c[nH]c3ncc(-c4ccc(Cl)cc4)cc23)c1F [Vemurafenib] was tested, and the “% proliferation” value was 12%.
